Assay results taken from ChEMBL document CHEMBL6120956, “Discovery of a Potent, Orally Active, and Long-Lasting P2X7 Receptor Antagonist as a Preclinical Candidate for Delaying the Progression of Chronic Kidney Disease” (J Med Chem, 2024).

Legend:
[1] = Stability in Balb/c mouse plasma measured upto 8 hrs; type: ADME, cell-free
[2] = AUC (0 to t) in male BALB/c mouse at 10 mg/kg, po single administration measured upto 72 hrs by LC-MS/MS analysis; type: ADME, organism-based; conditions: in vivo
[3] = Metabolic stability in mouse liver microsomes assessed as clearance; type: ADME, Microsome; conditions: read-out: CLH
[4] = Tmax in male BALB/c mouse at 10 mg/kg, po single administration measured upto 72 hrs by LC-MS/MS analysis; type: ADME, organism-based; conditions: in vivo
[5] = target: CYP3A4 (Homo sapiens, UniProt P08684); assay: Inhibition of CYP3A4 in human liver microsomes assessed as compound remaining at 1 uM measured after 2 hrs incubation by LC-MS/MS analysis; type: ADME, Microsome; conditions: read-out: Activity
CYP3A4, sequence (P08684 whole entry): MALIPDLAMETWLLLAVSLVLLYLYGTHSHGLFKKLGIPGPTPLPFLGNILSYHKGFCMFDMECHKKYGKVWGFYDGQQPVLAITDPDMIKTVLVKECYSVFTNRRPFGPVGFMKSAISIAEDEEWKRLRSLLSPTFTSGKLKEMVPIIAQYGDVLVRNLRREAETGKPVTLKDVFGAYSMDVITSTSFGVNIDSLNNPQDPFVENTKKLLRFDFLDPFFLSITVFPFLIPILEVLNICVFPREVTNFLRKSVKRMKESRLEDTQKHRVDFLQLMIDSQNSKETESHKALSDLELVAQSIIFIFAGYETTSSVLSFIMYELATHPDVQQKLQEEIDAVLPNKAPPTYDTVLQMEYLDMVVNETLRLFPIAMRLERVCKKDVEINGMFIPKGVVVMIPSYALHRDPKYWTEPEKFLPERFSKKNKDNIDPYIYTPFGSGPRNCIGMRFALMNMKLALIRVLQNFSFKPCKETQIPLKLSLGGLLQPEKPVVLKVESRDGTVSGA

[6] = target: T1, P2X purinoceptor 7 (Mus musculus, UniProt Q9Z1M0); assay: Antagonist activity against mouse P2X7 receptor expressed in ATP-stimulated HEK293 cells assessed as influx of PI by fluorescence dye uptake assay relative to control; type: cell-based
T1 sequence (Q9Z1M0 whole entry): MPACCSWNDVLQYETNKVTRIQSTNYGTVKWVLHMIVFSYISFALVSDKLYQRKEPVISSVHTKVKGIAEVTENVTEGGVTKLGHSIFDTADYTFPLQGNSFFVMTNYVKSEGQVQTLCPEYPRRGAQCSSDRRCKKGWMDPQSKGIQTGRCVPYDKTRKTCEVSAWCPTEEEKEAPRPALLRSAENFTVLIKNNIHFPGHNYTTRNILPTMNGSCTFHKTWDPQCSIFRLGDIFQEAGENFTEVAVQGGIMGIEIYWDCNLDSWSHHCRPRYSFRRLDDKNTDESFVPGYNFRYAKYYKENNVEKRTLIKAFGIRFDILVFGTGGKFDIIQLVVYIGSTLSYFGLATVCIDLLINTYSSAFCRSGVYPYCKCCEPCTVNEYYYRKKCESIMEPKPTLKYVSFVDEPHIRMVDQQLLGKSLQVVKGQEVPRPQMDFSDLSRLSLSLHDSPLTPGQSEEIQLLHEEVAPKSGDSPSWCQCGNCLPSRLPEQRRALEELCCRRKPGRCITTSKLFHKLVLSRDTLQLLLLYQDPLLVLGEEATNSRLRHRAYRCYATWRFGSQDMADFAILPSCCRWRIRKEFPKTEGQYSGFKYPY

[7] = target: CYP2E1 (Homo sapiens, UniProt P05181); assay: Inhibition of CYP2E1 in human liver microsomes assessed as compound remaining at 1 uM measured after 2 hrs incubation by LC-MS/MS analysis; type: ADME, Microsome; conditions: read-out: Activity
CYP2E1, sequence (P05181 whole entry): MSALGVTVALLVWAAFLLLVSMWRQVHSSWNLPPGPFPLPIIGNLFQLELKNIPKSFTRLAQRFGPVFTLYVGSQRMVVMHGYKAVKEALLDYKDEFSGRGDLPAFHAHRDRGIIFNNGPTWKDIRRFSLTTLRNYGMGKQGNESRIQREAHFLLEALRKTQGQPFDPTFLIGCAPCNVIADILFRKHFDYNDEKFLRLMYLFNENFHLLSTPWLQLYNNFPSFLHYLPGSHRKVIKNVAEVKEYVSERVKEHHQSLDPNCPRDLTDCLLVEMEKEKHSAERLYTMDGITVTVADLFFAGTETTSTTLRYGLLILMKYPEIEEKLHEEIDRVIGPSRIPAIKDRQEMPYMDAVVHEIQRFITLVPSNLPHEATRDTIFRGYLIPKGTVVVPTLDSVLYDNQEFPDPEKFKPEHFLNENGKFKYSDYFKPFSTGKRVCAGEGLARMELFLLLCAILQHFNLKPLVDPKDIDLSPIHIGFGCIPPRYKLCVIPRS

[8] = target: CYP2D6 (Homo sapiens, UniProt P10635); assay: Inhibition of CYP2D6 in human liver microsomes assessed as compound remaining at 1 uM measured after 2 hrs incubation by LC-MS/MS analysis; type: ADME, Microsome; conditions: read-out: Activity
CYP2D6, sequence (P10635 whole entry): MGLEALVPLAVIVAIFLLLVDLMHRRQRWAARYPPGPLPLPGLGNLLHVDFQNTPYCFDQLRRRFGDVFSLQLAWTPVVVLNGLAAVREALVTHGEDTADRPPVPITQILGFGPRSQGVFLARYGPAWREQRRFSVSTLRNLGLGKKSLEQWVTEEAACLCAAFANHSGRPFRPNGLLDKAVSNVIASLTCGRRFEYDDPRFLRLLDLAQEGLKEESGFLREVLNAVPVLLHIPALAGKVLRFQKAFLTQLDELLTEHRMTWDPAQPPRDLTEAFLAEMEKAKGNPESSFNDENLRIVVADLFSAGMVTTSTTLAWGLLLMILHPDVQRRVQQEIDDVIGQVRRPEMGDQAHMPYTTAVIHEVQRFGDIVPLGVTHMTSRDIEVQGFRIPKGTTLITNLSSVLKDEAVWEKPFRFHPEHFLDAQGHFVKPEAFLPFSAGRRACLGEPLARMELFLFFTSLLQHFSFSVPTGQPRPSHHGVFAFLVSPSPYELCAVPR

[9] = Metabolic stability in human liver microsomes assessed as half life; type: ADME, Microsome
[10] = target: CYP2C9 (Homo sapiens, UniProt P11712); assay: Inhibition of CYP2C9 in human liver microsomes assessed as compound remaining at 1 uM measured after 2 hrs incubation by LC-MS/MS analysis; type: ADME, Microsome; conditions: read-out: Activity
CYP2C9, sequence (P11712 whole entry): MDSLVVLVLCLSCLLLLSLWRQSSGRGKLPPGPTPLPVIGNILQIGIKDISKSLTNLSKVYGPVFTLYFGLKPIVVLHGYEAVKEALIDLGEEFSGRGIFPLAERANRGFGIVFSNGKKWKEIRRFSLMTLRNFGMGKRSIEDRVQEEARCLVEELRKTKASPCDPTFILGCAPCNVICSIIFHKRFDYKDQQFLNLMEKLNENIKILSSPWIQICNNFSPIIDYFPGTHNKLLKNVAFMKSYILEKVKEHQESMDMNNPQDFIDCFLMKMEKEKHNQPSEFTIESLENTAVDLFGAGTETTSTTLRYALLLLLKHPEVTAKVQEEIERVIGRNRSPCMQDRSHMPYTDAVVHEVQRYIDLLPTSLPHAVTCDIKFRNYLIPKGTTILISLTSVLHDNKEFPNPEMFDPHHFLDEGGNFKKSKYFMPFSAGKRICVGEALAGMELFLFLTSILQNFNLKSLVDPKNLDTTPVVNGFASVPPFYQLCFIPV

[11] = Plasma protein binding in plasma (unknown origin) at 10 uM measured after 6 hrs incubation by LC-MS/MS analysis; type: ADME, cell-free; conditions: read-out: PPB (converted)
[12] = target: CYP2C19 (Homo sapiens, UniProt P33261); assay: Inhibition of CYP2C19 in human liver microsomes assessed as compound remaining at 1 uM measured after 2 hrs incubation by LC-MS/MS analysis; type: ADME, Microsome; conditions: read-out: Activity
CYP2C19, sequence (P33261 whole entry): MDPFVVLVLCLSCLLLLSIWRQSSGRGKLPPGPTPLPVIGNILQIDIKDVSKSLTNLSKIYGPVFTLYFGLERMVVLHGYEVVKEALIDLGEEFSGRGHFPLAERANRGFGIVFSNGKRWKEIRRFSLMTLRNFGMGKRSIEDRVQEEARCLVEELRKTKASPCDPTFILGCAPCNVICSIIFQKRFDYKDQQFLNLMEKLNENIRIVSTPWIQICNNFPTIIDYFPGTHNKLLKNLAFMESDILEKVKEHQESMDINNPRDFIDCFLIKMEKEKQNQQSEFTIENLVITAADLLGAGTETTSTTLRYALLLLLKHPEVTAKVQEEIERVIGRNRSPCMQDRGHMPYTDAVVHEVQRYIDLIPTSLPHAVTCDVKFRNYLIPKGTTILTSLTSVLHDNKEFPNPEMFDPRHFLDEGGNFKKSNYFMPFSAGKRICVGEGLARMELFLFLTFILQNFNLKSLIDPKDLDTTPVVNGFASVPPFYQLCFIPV

[13] = Toxicity in female C57BL/6 mouse assessed as decrease in body weight at 2 g/Kg measured for 2 to 6 days; conditions: in vivo, 2000 mg/kg, time 2-6 day
[14] = Metabolic stability in mouse liver microsomes assessed as half life; type: ADME, Microsome
[15] = Metabolic stability in human liver microsomes assessed as clearance; type: ADME, Microsome; conditions: read-out: CLH
[16] = target: Voltage-gated inwardly rectifying potassium channel KCNH2 (Homo sapiens, UniProt Q12809); assay: Inhibition of hERG; type: toxicity
Voltage-gated inwardly rectifying potassium channel KCNH2, sequence (Q12809 whole entry): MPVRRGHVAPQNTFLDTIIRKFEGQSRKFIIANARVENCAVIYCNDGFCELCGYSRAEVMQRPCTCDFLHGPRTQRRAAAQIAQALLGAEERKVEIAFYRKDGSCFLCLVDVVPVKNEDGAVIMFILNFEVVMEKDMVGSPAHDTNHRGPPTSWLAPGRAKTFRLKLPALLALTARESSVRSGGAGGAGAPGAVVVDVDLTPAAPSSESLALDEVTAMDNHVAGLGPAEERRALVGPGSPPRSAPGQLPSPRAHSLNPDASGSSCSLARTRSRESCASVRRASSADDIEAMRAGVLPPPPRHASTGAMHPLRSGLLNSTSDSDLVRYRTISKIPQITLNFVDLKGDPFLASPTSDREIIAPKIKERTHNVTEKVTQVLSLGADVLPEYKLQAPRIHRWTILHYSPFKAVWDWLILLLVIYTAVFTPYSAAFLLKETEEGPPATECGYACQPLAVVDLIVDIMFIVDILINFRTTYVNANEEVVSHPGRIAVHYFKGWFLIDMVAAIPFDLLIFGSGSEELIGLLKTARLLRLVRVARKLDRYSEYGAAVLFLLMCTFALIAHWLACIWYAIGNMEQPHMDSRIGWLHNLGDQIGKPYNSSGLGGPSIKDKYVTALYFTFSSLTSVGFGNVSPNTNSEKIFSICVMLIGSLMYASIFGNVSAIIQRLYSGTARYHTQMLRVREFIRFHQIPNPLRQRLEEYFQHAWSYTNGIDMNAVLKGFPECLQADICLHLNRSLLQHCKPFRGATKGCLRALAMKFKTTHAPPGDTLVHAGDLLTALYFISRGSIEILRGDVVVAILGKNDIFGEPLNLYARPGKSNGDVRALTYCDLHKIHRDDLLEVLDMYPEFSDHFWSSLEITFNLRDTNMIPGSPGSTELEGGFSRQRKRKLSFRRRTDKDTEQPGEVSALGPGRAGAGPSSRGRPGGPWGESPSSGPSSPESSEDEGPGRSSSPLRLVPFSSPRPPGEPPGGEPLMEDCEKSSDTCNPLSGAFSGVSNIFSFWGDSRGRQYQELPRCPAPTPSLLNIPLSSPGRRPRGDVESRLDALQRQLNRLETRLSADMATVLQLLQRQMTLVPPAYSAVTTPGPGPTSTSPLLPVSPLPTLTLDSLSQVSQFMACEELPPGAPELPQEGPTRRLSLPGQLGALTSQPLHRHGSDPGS

[17] = Half life in male BALB/c mouse at 10 mg/kg, po single administration measured upto 72 hrs by LC-MS/MS analysis; type: ADME, organism-based; conditions: in vivo
[18] = target: T2, CYP2A6 (Homo sapiens, UniProt P11509); assay: Inhibition of CYP2A6 in human liver microsomes assessed as compound remaining at 1 uM measured after 2 hrs incubation by LC-MS/MS analysis; type: ADME, Microsome; conditions: read-out: Activity
T2 sequence (P11509 whole entry): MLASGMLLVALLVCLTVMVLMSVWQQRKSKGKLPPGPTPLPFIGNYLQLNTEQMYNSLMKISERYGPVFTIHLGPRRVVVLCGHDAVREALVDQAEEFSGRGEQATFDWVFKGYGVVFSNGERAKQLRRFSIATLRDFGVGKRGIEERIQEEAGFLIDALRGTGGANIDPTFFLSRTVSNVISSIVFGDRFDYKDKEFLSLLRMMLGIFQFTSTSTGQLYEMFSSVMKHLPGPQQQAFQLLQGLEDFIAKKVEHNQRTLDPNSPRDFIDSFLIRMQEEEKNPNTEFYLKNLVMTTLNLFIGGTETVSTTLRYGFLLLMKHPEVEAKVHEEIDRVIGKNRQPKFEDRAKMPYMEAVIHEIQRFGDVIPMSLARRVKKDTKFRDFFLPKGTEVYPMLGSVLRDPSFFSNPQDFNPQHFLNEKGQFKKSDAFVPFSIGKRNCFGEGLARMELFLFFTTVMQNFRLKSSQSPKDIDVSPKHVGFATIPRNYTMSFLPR

[19] = Toxicity in C57BL/6 mouse assessed as change in body weight at 2 g/Kg measured for 14 days; conditions: in vivo, 2000 mg/kg, 336 h, time 14 day
[20] = target: T3, CYP1A2 (Homo sapiens, UniProt P05177); assay: Inhibition of CYP1A2 in human liver microsomes assessed as compound remaining at 1 uM measured after 2 hrs incubation by LC-MS/MS analysis; type: ADME, Microsome; conditions: read-out: Activity
T3 sequence (P05177 whole entry): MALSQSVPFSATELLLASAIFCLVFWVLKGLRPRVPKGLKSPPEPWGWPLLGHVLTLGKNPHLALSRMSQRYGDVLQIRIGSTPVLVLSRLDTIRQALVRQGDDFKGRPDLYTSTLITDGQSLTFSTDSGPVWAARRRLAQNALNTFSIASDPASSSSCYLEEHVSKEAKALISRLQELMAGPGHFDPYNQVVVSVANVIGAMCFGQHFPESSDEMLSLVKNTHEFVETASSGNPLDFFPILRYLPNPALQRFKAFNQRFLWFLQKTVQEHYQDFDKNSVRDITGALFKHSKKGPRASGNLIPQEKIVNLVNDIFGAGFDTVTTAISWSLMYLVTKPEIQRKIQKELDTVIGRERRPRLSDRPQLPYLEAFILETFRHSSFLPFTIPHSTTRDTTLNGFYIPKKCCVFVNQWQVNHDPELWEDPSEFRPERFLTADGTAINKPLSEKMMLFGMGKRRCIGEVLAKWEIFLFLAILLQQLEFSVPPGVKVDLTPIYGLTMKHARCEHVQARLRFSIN

[21] = Cmax in male BALB/c mouse at 10 mg/kg, po single administration measured upto 72 hrs by LC-MS/MS analysis; type: ADME, organism-based; conditions: in vivo
[22] = Clearance in male BALB/c mouse at 10 mg/kg, po single administration measured upto 72 hrs by LC-MS/MS analysis; type: ADME, organism-based; conditions: in vivo
[23] = system: HEK293; assay: Cytotoxicity against HEK293 cells expressing mouse P2X7 receptor assessed as cell viability upto 2 uM measured after 24 hrs incubation by CCK8 assay; type: toxicity, cell-based; conditions: human, hek293, 24 h
[24] = system: HEK293; assay: Cytotoxicity against HEK293 cells expressing human P2X7 receptor assessed as cell viability upto 2 uM measured after 24 hrs incubation by CCK8 assay; type: toxicity, cell-based; conditions: hek293, 24 h

| Stability [1] | AUC(0-t) at 72 h [2] | CLint scaled [3] | Tmax [4] | remaining at 2 h, 1 µM [5] | IC50 [6] | remaining at 2 h, 1 µM [7] | remaining at 2 h, 1 µM [8] | half-life [9] | remaining at 2 h, 1 µM [10] | fraction unbound at 6 h, 10 µM [11] | remaining at 2 h, 1 µM [12] | half-life [14] | CLint scaled [15] | half-life [17] | remaining at 2 h, 1 µM [18] | remaining at 2 h, 1 µM [20] | Cmax [21] | CL/F [22] | Structure (SMILES) | also measured |
| --- | --- | --- | --- | --- | --- | --- | --- | --- | --- | --- | --- | --- | --- | --- | --- | --- | --- | --- | --- | --- |
| Stable | 1160 µg·h/mL | < 12 mL/min/kg | 24 h | 100% | 25.3 nM | 100% | 100% | > 2 h | 100% | 0.003 | 100% | > 2 h | < 12 mL/min/kg | 162 h | 100% | 100% | 19800 ng/mL |  | C[C@H](NC(=O)c1cnc(-c2ccc(S(C)(=O)=O)cc2)s1)c1cn(-c2cc(C(F)(F)F)ccn2)nn1 | Activity [13]: Non-toxic; IC50 [16]: > 30000 nM; Activity [19]: Non-toxic |
| Stable | 86.5 µg·h/mL | < 12 mL/min/kg | 2.33 h | 84.2% | 54.7 nM | 84.2% | 84.2% | > 2 h | 84.2% | 0.0213 | 84.2% | > 2 h | < 12 mL/min/kg | 4.71 h | 84.2% | 84.2% | 6900 ng/mL | 2.17 mL/min/kg | C[C@@H](NC(=O)c1cnc(-c2ccc(S(C)(=O)=O)cc2)s1)c1cn(-c2cc(C(F)(F)F)ccn2)nn1 |  |
|  | 103 µg·h/mL | < 12 mL/min/kg | 3 h |  | 168 nM |  |  | > 2 h |  |  |  | > 2 h | < 12 mL/min/kg | 6.6 h |  |  | 6610 ng/mL | 1.67 mL/min/kg | C[C@@H](NC(=O)c1csc(-c2ccc(S(C)(=O)=O)cc2)n1)c1cn(-c2cc(C(F)(F)F)ccn2)nn1 | Activity [23]: Non-toxic; Activity [24]: Non-toxic |
